Patent publication US20260022142A1, “MACROCYCLIC IMMUNOMODULATORS” (Bristol-Myers Squibb Company, priority 2022, published 2026)
Bridge positions count the residues as written; N and C are the ends. Square brackets hold non-standard residues; d marks the D form. Peptide text beside a SMILES is read from it. * marks the point of attachment. Bip = N[C@@H](Cc1ccc(-c2ccccc2)cc1)C(=O)O; Phe(3-Me) = Cc1cccc(C[C@H](N)C(=O)O)c1; Cha = N[C@@H](CC1CCCCC1)C(=O)O; Carboxymethyl = O=C(O)C*; Orn = NCCC[C@H](N)C(=O)O; Aun = NCCCCCCCCCCC(=O)O; Dab = NCC[C@H](N)C(=O)O; Dap = NC[C@H](N)C(=O)O; AEEA = NCCOCCOCC(=O)O

Molecular target: T1, PD-1/PD-L1 interaction (PE-labeled human PD-L1-Ig binding to Jurkat cell line over-expressing human PD-1) (Homo sapiens, UniProt Q15116)
T1 construct: expressed in transfected cells; host or cells: Jurkat
Test: Jurkat-PD-1 Cell Binding High-Content Screening Assay (CBA)
Format: cell-based
Conditions: Jurkat cell line over-expressing human PD-1; PE-labeled PD-L1-Ig 20 nM final; read-out: Jurkat hPD1-PDL1 IC50
Method in brief: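 Binding of fluorescent PD-L1-Ig (20 nM final) to Jurkat-PD-1 cells was measured by automated imaging after 1 h, following a 2 h compound pre-treatment at 37° C.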

T1 sequence (Q15116 25-288): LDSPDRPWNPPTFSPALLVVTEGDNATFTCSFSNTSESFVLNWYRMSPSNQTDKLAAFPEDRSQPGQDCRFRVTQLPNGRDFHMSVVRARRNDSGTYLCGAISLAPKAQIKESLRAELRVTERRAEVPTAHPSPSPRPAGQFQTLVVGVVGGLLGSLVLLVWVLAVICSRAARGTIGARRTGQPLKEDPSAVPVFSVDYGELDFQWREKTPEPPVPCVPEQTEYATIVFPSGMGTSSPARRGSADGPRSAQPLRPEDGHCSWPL

| SMILES | IC50 |
| --- | --- |
| CC(C)C[C@H]1NC(=O)[C@H](CCCN)NC(=O)[C@H](C(C)C)NC(=O)[C@H](Cc2ccc(-c3ccccc3)cc2)NC(=O)[C@H](C(C)C)NC(=O)[C@H](Cc2c[nH]c3ccccc23)NC(=O)[C@H](CC(=O)O)NC(=O)[C@H](Cc2ccc(OCC(=O)O)cc2)NC(=O)[C@H](CN)NC(=O)CSC[C@@H](C(=O)NCCOCCOCC(=O)NCCCCCCCCCCC(=O)O)NC(=O)[C@H]([C@@H](C)O)NC(=O)[C@H](C(C)C)NC(=O)[C@H](CC2CCCCC2)NC(=O)[C@H](Cc2cnc[nH]2)NC1=O [Compound 1100] ({CH2CO}-[Dap]Y(Carboxymethyl)DWV[Bip]V[Orn][dL]H[Cha]VTC[AEEA][Aun]-OH; thioether N-14) | 0.0088 µM |
| Cc1cccc(C[C@@H]2NC(=O)[C@H](CC(=O)O)NC(=O)[C@H](Cc3ccc(OCC(=O)O)cc3)NC(=O)[C@H](CN)NC(=O)CSC[C@@H](C(=O)N[C@@H](CCN)C(=O)NCCCCCCCCCCC(=O)O)NC(=O)[C@H]([C@@H](C)O)NC(=O)[C@H](C(C)C)NC(=O)[C@H](CC3CCCCC3)NC(=O)[C@H](Cc3cnc[nH]3)NC(=O)[C@@H](CC(C)C)NC(=O)[C@H](CCCN)NC(=O)[C@H](C(C)C)NC(=O)[C@H](Cc3ccc(-c4ccccc4)cc3)NC(=O)[C@H](C(C)C)NC2=O)c1 [Compound 1101] ({CH2CO}-[Dap]Y(Carboxymethyl)D[Phe(3-Me)]V[Bip]V[Orn][dL]H[Cha]VTC[Dab][Aun]-OH; thioether N-14) | 0.0696 µM |
| Cc1cccc(C[C@@H]2NC(=O)[C@H](CC(=O)O)NC(=O)[C@H](Cc3ccc(OCC(=O)O)cc3)NC(=O)[C@H](CN)NC(=O)CSC[C@@H](C(=O)N[C@@H](C)C(=O)N[C@@H](CCC(=O)O)C(=O)NCCCCCCCCCCC(=O)O)NC(=O)[C@H]([C@@H](C)O)NC(=O)[C@H](C(C)C)NC(=O)[C@H](CC3CCCCC3)NC(=O)[C@H](Cc3cnc[nH]3)NC(=O)[C@@H](CC(C)C)NC(=O)[C@H](CCCN)NC(=O)[C@H](C(C)C)NC(=O)[C@H](Cc3ccc(-c4ccccc4)cc3)NC(=O)[C@H](C(C)C)NC2=O)c1 [Compound 1103] ({CH2CO}-[Dap]Y(Carboxymethyl)D[Phe(3-Me)]V[Bip]V[Orn][dL]H[Cha]VTCAE[Aun]-OH; thioether N-14) | 0.0291 µM |
| CC(C)C[C@H]1NC(=O)[C@H](CCCN)NC(=O)[C@H](C(C)C)NC(=O)[C@H](Cc2ccc(-c3ccccc3)cc2)NC(=O)[C@H](C(C)C)NC(=O)[C@H](Cc2c[nH]c3ccccc23)NC(=O)[C@H](CC(=O)O)NC(=O)[C@H](Cc2ccc(OCC(=O)O)cc2)NC(=O)[C@H](CN)NC(=O)CSC[C@@H](C(=O)NCCOCCOCC(=O)N[C@@H](CC(=O)O)C(=O)NCCCCCCCCCCC(=O)O)NC(=O)[C@H]([C@@H](C)O)NC(=O)[C@H](C(C)C)NC(=O)[C@H](CC2CCCCC2)NC(=O)[C@H](Cc2cnc[nH]2)NC1=O [Compound 1105] ({CH2CO}-[Dap]Y(Carboxymethyl)DWV[Bip]V[Orn][dL]H[Cha]VTC[AEEA]D[Aun]-OH; thioether N-14) | 0.023 µM |
| Cc1cccc(C[C@@H]2NC(=O)[C@H](CC(=O)O)NC(=O)[C@H](Cc3ccc(OCC(=O)O)cc3)NC(=O)[C@H](CN)NC(=O)CSC[C@@H](C(=O)N[C@@H](CCC(=O)O)C(=O)NCC(=O)NCCCCCCCCCCC(=O)O)NC(=O)[C@H]([C@@H](C)O)NC(=O)[C@H](C(C)C)NC(=O)[C@H](CC3CCCCC3)NC(=O)[C@H](Cc3cnc[nH]3)NC(=O)[C@@H](CC(C)C)NC(=O)[C@H](CCCN)NC(=O)[C@H](C(C)C)NC(=O)[C@H](Cc3ccc(-c4ccccc4)cc3)NC(=O)[C@H](C(C)C)NC2=O)c1 [Compound 1106] ({CH2CO}-[Dap]Y(Carboxymethyl)D[Phe(3-Me)]V[Bip]V[Orn][dL]H[Cha]VTCEG[Aun]-OH; thioether N-14) | 0.0265 µM |
| Cc1cccc(C[C@@H]2NC(=O)[C@H](CC(=O)O)NC(=O)[C@H](Cc3ccc(OCC(=O)O)cc3)NC(=O)[C@H](CN)NC(=O)CSC[C@@H](C(=O)N[C@@H](CC(=O)O)C(=O)NCCCCCCCCCCC(=O)O)NC(=O)[C@H]([C@@H](C)O)NC(=O)[C@H](C(C)C)NC(=O)[C@H](CC3CCCCC3)NC(=O)[C@H](Cc3cnc[nH]3)NC(=O)[C@@H](CC(C)C)NC(=O)[C@H](CCCN)NC(=O)[C@H](C(C)C)NC(=O)[C@H](Cc3ccc(-c4ccccc4)cc3)NC(=O)[C@H](C(C)C)NC2=O)c1 [Compound 1107] ({CH2CO}-[Dap]Y(Carboxymethyl)D[Phe(3-Me)]V[Bip]V[Orn][dL]H[Cha]VTCD[Aun]-OH; thioether N-14) | 0.0358 µM |
| Cc1cccc(C[C@@H]2NC(=O)[C@H](CC(=O)O)NC(=O)[C@H](Cc3ccc(OCC(=O)O)cc3)NC(=O)[C@H](CN)NC(=O)CSC[C@@H](C(=O)N[C@@H](CCC(=O)O)C(=O)NCCCCCCCCCCC(=O)O)NC(=O)[C@H]([C@@H](C)O)NC(=O)[C@H](C(C)C)NC(=O)[C@H](CC3CCCCC3)NC(=O)[C@H](Cc3cnc[nH]3)NC(=O)[C@@H](CC(C)C)NC(=O)[C@H](CCCN)NC(=O)[C@H](C(C)C)NC(=O)[C@H](Cc3ccc(-c4ccccc4)cc3)NC(=O)[C@H](C(C)C)NC2=O)c1 [Compound 1108] ({CH2CO}-[Dap]Y(Carboxymethyl)D[Phe(3-Me)]V[Bip]V[Orn][dL]H[Cha]VTCE[Aun]-OH; thioether N-14) | 0.027 µM |
| Cc1cccc(C[C@@H]2NC(=O)[C@H](CC(=O)O)NC(=O)[C@H](Cc3ccc(OCC(=O)O)cc3)NC(=O)[C@H](CN)NC(=O)CSC[C@@H](C(=O)N[C@@H](CCCN)C(=O)NCCCCCCCCCCC(=O)O)NC(=O)[C@H]([C@@H](C)O)NC(=O)[C@H](C(C)C)NC(=O)[C@H](CC3CCCCC3)NC(=O)[C@H](Cc3cnc[nH]3)NC(=O)[C@@H](CC(C)C)NC(=O)[C@H](CCCN)NC(=O)[C@H](C(C)C)NC(=O)[C@H](Cc3ccc(-c4ccccc4)cc3)NC(=O)[C@H](C(C)C)NC2=O)c1 [Compound 1109] ({CH2CO}-[Dap]Y(Carboxymethyl)D[Phe(3-Me)]V[Bip]V[Orn][dL]H[Cha]VTC[Orn][Aun]-OH; thioether N-14) | 0.0376 µM |
| Cc1cccc(C[C@@H]2NC(=O)[C@H](CC(=O)O)NC(=O)[C@H](Cc3ccc(OCC(=O)O)cc3)NC(=O)[C@H](CN)NC(=O)CSC[C@@H](C(=O)N[C@@H](CCCCN)C(=O)NCCCCCCCCCCC(=O)O)NC(=O)[C@H]([C@@H](C)O)NC(=O)[C@H](C(C)C)NC(=O)[C@H](CC3CCCCC3)NC(=O)[C@H](Cc3cnc[nH]3)NC(=O)[C@@H](CC(C)C)NC(=O)[C@H](CCCN)NC(=O)[C@H](C(C)C)NC(=O)[C@H](Cc3ccc(-c4ccccc4)cc3)NC(=O)[C@H](C(C)C)NC2=O)c1 [Compound 1110] ({CH2CO}-[Dap]Y(Carboxymethyl)D[Phe(3-Me)]V[Bip]V[Orn][dL]H[Cha]VTCK[Aun]-OH; thioether N-14) | 0.033 µM |
| Cc1cccc(C[C@@H]2NC(=O)[C@H](CC(=O)O)NC(=O)[C@H](Cc3ccc(OCC(=O)O)cc3)NC(=O)[C@H](CN)NC(=O)CSC[C@@H](C(=O)N[C@@H](C)C(=O)N[C@@H](CN)C(=O)NCCCCCCCCCCC(=O)O)NC(=O)[C@H]([C@@H](C)O)NC(=O)[C@H](C(C)C)NC(=O)[C@H](CC3CCCCC3)NC(=O)[C@H](Cc3cnc[nH]3)NC(=O)[C@@H](CC(C)C)NC(=O)[C@H](CCCN)NC(=O)[C@H](C(C)C)NC(=O)[C@H](Cc3ccc(-c4ccccc4)cc3)NC(=O)[C@H](C(C)C)NC2=O)c1 [Compound 1111] ({CH2CO}-[Dap]Y(Carboxymethyl)D[Phe(3-Me)]V[Bip]V[Orn][dL]H[Cha]VTCA[Dap][Aun]-OH; thioether N-14) | 0.0642 µM |
| Cc1cccc(C[C@@H]2NC(=O)[C@H](CC(=O)O)NC(=O)[C@H](Cc3ccc(OCC(=O)O)cc3)NC(=O)[C@H](CN)NC(=O)CSC[C@@H](C(=O)N[C@@H](C)C(=O)N[C@@H](CCN)C(=O)NCCCCCCCCCCC(=O)O)NC(=O)[C@H]([C@@H](C)O)NC(=O)[C@H](C(C)C)NC(=O)[C@H](CC3CCCCC3)NC(=O)[C@H](Cc3cnc[nH]3)NC(=O)[C@@H](CC(C)C)NC(=O)[C@H](CCCN)NC(=O)[C@H](C(C)C)NC(=O)[C@H](Cc3ccc(-c4ccccc4)cc3)NC(=O)[C@H](C(C)C)NC2=O)c1 [Compound 1112] ({CH2CO}-[Dap]Y(Carboxymethyl)D[Phe(3-Me)]V[Bip]V[Orn][dL]H[Cha]VTCA[Dab][Aun]-OH; thioether N-14) | 0.0182 µM |
| Cc1cccc(C[C@@H]2NC(=O)[C@H](CC(=O)O)NC(=O)[C@H](Cc3ccc(OCC(=O)O)cc3)NC(=O)[C@H](CN)NC(=O)CSC[C@@H](C(=O)N[C@@H](C)C(=O)N[C@@H](CCCN)C(=O)NCCCCCCCCCCC(=O)O)NC(=O)[C@H]([C@@H](C)O)NC(=O)[C@H](C(C)C)NC(=O)[C@H](CC3CCCCC3)NC(=O)[C@H](Cc3cnc[nH]3)NC(=O)[C@@H](CC(C)C)NC(=O)[C@H](CCCN)NC(=O)[C@H](C(C)C)NC(=O)[C@H](Cc3ccc(-c4ccccc4)cc3)NC(=O)[C@H](C(C)C)NC2=O)c1 [Compound 1113] ({CH2CO}-[Dap]Y(Carboxymethyl)D[Phe(3-Me)]V[Bip]V[Orn][dL]H[Cha]VTCA[Orn][Aun]-OH; thioether N-14) | 0.0302 µM |
| CC(C)C[C@H]1NC(=O)[C@H](CCCN)NC(=O)[C@H](C(C)C)NC(=O)[C@H](Cc2ccc(-c3ccccc3)cc2)NC(=O)[C@H](C(C)C)NC(=O)[C@H](Cc2c[nH]c3ccccc23)NC(=O)[C@H](CC(=O)O)NC(=O)[C@H](Cc2ccc(OCC(=O)O)cc2)NC(=O)[C@H](CN)NC(=O)CSC[C@@H](C(=O)N[C@@H](C)C(=O)N[C@@H](CO)C(=O)NCCCCCCCCCCC(=O)O)NC(=O)[C@H]([C@@H](C)O)NC(=O)[C@H](C(C)C)NC(=O)[C@H](CC2CCCCC2)NC(=O)[C@H](Cc2cnc[nH]2)NC1=O [Compound 1114] ({CH2CO}-[Dap]Y(Carboxymethyl)DWV[Bip]V[Orn][dL]H[Cha]VTCAS[Aun]-OH; thioether N-14) | 0.061 µM |
